According to patent US9511019B2, “Pharmaceutical compositions for treating IBD” (NORDIC PHARMA, priority 2009, dated 2016):

System: TNBS colitis
Assay: TNBS colitis in mice, macroscopic lesions by Wallace criteria
Assay type: in vivo, C57b16 mice
Settings: for Wallace score (macroscopic lesions, scale 0 to 10): TNBS colitic mice, daily intrarectal administration from 3 days before to 4 days after induction, 5-ASA 0.5 mg, PMSB 2.34 mg/kg/day, untreated control 3.4; for action percentage in comparison to the Wallace score of untreated control: Wallace score 3.4 = 0% action, score 0 = 100% action
Experimental: Induction of TNBS Colitis and Evaluation of Macroscopic Lesions in the Colitis after Administration of 5-ASA, PMSB, and Synergistic Combination of 5-ASA and PMSB.
Animal experiments were performed in accredited establishments according to governmental guidelines.
Colitis induction was conducted on C57b16 mice aged of 6 weeks old. They were anesthetized for 90-120 minutes before they received intrarectal administration of TNBS (trinitrobenzene sulphonic acid) (40 μl, 150 mg/kg) dissolved in a 1:1 mixture of 0.9% NaCl with 100% ethanol. Control mice received a 1:1 mixture of 0.9% NaCl with 100% ethanol or a saline solution using the same technique. Animals were sacrificed 4 days after TNBS administration. The anti-inflammatory effect of 5-ASA and steroid was evaluated by daily administration of these compounds by intrarectal route in a final volume of 50 μl, starting 3 days before the colitis induction and during all the experiment (4 days after colitis induction). Dosage amount of 5-ASA was 0.5 mg (50 μl of 1 g/100 ml stock), 65 mM and the dosage amount of PMSB was 2.34 mg/kg/day.
The macroscopic assessments of colitis were performed blindly by two investigators. The colon of each mouse was examined under a dissecting microscope (magnification, ×5), to evaluate the macroscopic lesions according to the Wallace criteria. The score rates macroscopic lesions on a scale of from 0 to 10 based on the features reflecting inflammation, such as hyperaemia, thickening of the bowel, and extent of ulceration. The Wallace scale is defined as follows. A score of 0 represents an absence of inflammation, a score of 1, a hyperaemia without ulcerations, a score of 2 a hyperaemia with a thickening of the mucosa without ulcerations, a score of 3, one ulceration without thickening of the colonic wall, a score of 4, two or more of ulcerative or inflammatory sites, a score of 5, two or more ulcerative and inflammatory sites with an extent of more than 1 cm, and for a score of from 6 to 10, an ulcerative or inflammatory site of growing size of from 2 to 6 cm.
A score of Wallace of 3.4 thus indicates an action of 0% and a score of 0, (no lesion) indicates 100% action. […] The action that the active ingredients would be expected to have in combination was calculated according to the Colby formula, and a comparison in the actions was then observed.
The Colby formula is E=X+Y−(XxY)/100, wherein E is the expected degree of action, expressed in %, when the active ingredients 5-ASA and prednisolone PMSB are used in combination. […] It is the degree of action converted from the Wallace score obtained for the A group. […] It is the degree of action converted from the Wallace score obtained for the P group.

Compound | Wallace score (macroscopic lesions, scale 0 to 10) | action percentage in comparison to the Wallace score of untreated control [%]
Nc1ccc(O)c(C(=O)O)c1 [Formulation 5-ASA, 5-aminosalicylic acid] | 1.25 | 63
C[C@]12C=CC(=O)C=C1CC[C@@H]1[C@@H]2[C@@H](O)C[C@@]2(C)[C@H]1CC[C@]2(O)C(=O)COC(=O)c1cccc(S(=O)(=O)O)c1 [PMSB, prednisolone metasulfobenzoate] | 1.83 | 46
